Data: ChEMBL document CHEMBL3352114, “Synthesis and biological evaluation of unnatural derivatives of narciclasine: 7-aza-nornarciclasine and its N-oxide” (Bioorg Med Chem Lett, 2014)

Tests used:
Assay type in all cases: functional, cell-based; call rule not given here
HeLa = assay: Cytotoxicity against human HeLa cells after 48 hrs by MTT assay
[1] = Cytotoxicity against human BxPC3 cells; conditions: BXPC-3
MCF7 = assay: Cytotoxicity against human MCF7 cells after 48 hrs by MTT assay
NCI-H460 = assay: Cytotoxicity against human NCI-H460 cells
DU-145 = assay: Cytotoxicity against human DU145 cells
[2] = Homo sapiens, HeLa, 48 h, read-out: IC50
[3] = Homo sapiens, MCF7, 48 h, read-out: IC50

| SMILES | IC50 (HeLa; [2]) [µM] | IC50 [1] [nM] | IC50 (MCF7; [3]) [µM] | IC50 (NCI-H460) [nM] | IC50 (DU-145) [nM] | IC50 (HeLa; hela) | IC50 (MCF7; mcf7) |
| --- | --- | --- | --- | --- | --- | --- | --- |
| CC(=O)OC[C@H]1[C@H](O)[C@@H](O)[C@@H](O)[C@@H]2NC(=O)c3c(cc4c(c3O)OCO4)[C@@H]12 | < 0.4 | 70 | < 0.4 |  |  |  |  |
| O=C(OC[C@H]1[C@H](O)[C@@H](O)[C@@H](O)[C@@H]2NC(=O)c3c(cc4c(c3O)OCO4)[C@@H]12)c1ccccc1 | < 0.4 | 10 | < 0.4 | 30 | 10 |  |  |
| O=C1N[C@@H]2C(=C[C@H](O)[C@@H](O)[C@H]2O)c2cccnc21 [listing 1 of 2 here] | > 100 |  | > 100 |  |  |  |  |
| O=C1N[C@@H]2C(=C[C@H](O)[C@@H](O)[C@H]2O)c2cc3c(c(O)c21)OCO3 [NARCICLASINE] |  | 50 |  | 50 | 30 |  |  |
| O=C1N[C@@H]2C(=C[C@H](O)[C@@H](O)[C@H]2O)c2ccc[n+]([O-])c21 | > 100 |  | > 100 |  |  |  |  |
| O=C1N[C@@H]2C(=C[C@H](O)[C@@H](O)[C@H]2O)c2cccnc21 [listing 2 of 2 here] |  |  |  |  |  | Not Active | Not Active |
